Assay results as given in the NIST ThermoML archive (doi:10.1016/j.fluid.2010.10.028).

Assay: xn = mol fraction of the nth substance listed
Conditions: Liquid, Vibrating tube method

CC(C)=O [acetone] + CCCCCCC
Conditions | mass density [kg/m3]
397.26 K, 104690 kPa, x1 = 0.8992 | 764.67
397.26 K, 109670 kPa, x1 = 0.4 | 767.98
397.26 K, 109670 kPa, x1 = 0.8992 | 767.98
397.26 K, 114610 kPa, x1 = 0.4 | 771.16
397.26 K, 114610 kPa, x1 = 0.8992 | 771.16
397.26 K, 119600 kPa, x1 = 0.4 | 774.27
397.26 K, 119600 kPa, x1 = 0.8992 | 774.27
397.27 K, 1520 kPa, x1 = 0.611 | 608
397.27 K, 4850 kPa, x1 = 0.801 | 635.17
397.27 K, 4860 kPa, x1 = 0.611 | 616.98
397.27 K, 9850 kPa, x1 = 0.801 | 646.73
397.27 K, 9870 kPa, x1 = 0.611 | 628.41
397.27 K, 10000 kPa, x1 = 0.4 | 660.81
397.27 K, 10000 kPa, x1 = 0.8992 | 660.81
397.27 K, 14860 kPa, x1 = 0.801 | 656.72
397.27 K, 19840 kPa, x1 = 0.801 | 665.54
397.27 K, 19860 kPa, x1 = 0.611 | 646.79
397.27 K, 24850 kPa, x1 = 0.611 | 654.54
397.27 K, 24870 kPa, x1 = 0.801 | 673.51
397.27 K, 24950 kPa, x1 = 0.4 | 687.4
397.27 K, 24950 kPa, x1 = 0.8992 | 687.4
397.27 K, 29850 kPa, x1 = 0.611 | 661.6
397.27 K, 34860 kPa, x1 = 0.801 | 687.43
397.27 K, 34870 kPa, x1 = 0.611 | 668.12
397.27 K, 34940 kPa, x1 = 0.4 | 701.35
397.27 K, 34940 kPa, x1 = 0.8992 | 701.35
397.27 K, 39870 kPa, x1 = 0.611 | 674.11
397.27 K, 39930 kPa, x1 = 0.4 | 707.57
397.27 K, 39930 kPa, x1 = 0.8992 | 707.57
397.27 K, 44850 kPa, x1 = 0.801 | 699.35
397.27 K, 44870 kPa, x1 = 0.611 | 679.73
397.27 K, 49850 kPa, x1 = 0.611 | 684.97
397.27 K, 49850 kPa, x1 = 0.801 | 704.77
397.27 K, 54850 kPa, x1 = 0.611 | 689.91
397.27 K, 54860 kPa, x1 = 0.801 | 709.87
397.27 K, 59840 kPa, x1 = 0.611 | 694.59
397.27 K, 64820 kPa, x1 = 0.801 | 719.28
397.27 K, 64860 kPa, x1 = 0.4 | 733.56
397.27 K, 64860 kPa, x1 = 0.8992 | 733.56
397.27 K, 69920 kPa, x1 = 0.611 | 703.34
397.27 K, 69920 kPa, x1 = 0.801 | 723.77
397.27 K, 79800 kPa, x1 = 0.4 | 746.33
397.27 K, 79800 kPa, x1 = 0.8992 | 746.33
397.27 K, 79900 kPa, x1 = 0.801 | 731.97
397.27 K, 79910 kPa, x1 = 0.611 | 711.27
397.27 K, 84880 kPa, x1 = 0.611 | 715
397.27 K, 84880 kPa, x1 = 0.801 | 735.83
397.27 K, 89870 kPa, x1 = 0.611 | 718.57
397.27 K, 89870 kPa, x1 = 0.801 | 739.53
397.27 K, 94750 kPa, x1 = 0.4 | 757.72
397.27 K, 94750 kPa, x1 = 0.8992 | 757.72
397.27 K, 94840 kPa, x1 = 0.801 | 743.11
397.27 K, 94850 kPa, x1 = 0.611 | 722.01
397.27 K, 99720 kPa, x1 = 0.4 | 761.24
397.27 K, 99720 kPa, x1 = 0.8992 | 761.24
397.27 K, 99830 kPa, x1 = 0.611 | 725.33
397.27 K, 104800 kPa, x1 = 0.611 | 728.56
397.27 K, 104800 kPa, x1 = 0.801 | 749.91
397.27 K, 109770 kPa, x1 = 0.611 | 731.66
397.27 K, 119830 kPa, x1 = 0.801 | 759.4
397.27 K, 124560 kPa, x1 = 0.4 | 777.29
397.27 K, 124560 kPa, x1 = 0.8992 | 777.29
397.27 K, 129820 kPa, x1 = 0.4 | 780.45
397.27 K, 129820 kPa, x1 = 0.8992 | 780.45
397.27 K, 129840 kPa, x1 = 0.801 | 765.29
397.28 K, 1470 kPa, x1 = 0.7024 | 615.75
397.28 K, 1500 kPa, x1 = 0.492 | 600.98
397.28 K, 4850 kPa, x1 = 0.7024 | 624.89
397.28 K, 4860 kPa, x1 = 0.492 | 609.77
397.28 K, 9830 kPa, x1 = 0.7024 | 636.41
397.28 K, 9850 kPa, x1 = 0.492 | 620.92
397.28 K, 14840 kPa, x1 = 0.7024 | 646.37
397.28 K, 14860 kPa, x1 = 0.492 | 630.52
397.28 K, 19840 kPa, x1 = 0.7024 | 655.11
397.28 K, 24820 kPa, x1 = 0.7024 | 662.95
397.28 K, 29820 kPa, x1 = 0.7024 | 670.12
397.28 K, 29840 kPa, x1 = 0.492 | 653.43
397.28 K, 29860 kPa, x1 = 0.801 | 680.72
397.28 K, 34830 kPa, x1 = 0.7024 | 676.7
397.28 K, 34860 kPa, x1 = 0.492 | 659.77
397.28 K, 39840 kPa, x1 = 0.7024 | 682.81
397.28 K, 39850 kPa, x1 = 0.801 | 693.57
397.28 K, 44820 kPa, x1 = 0.7024 | 688.48
397.28 K, 44860 kPa, x1 = 0.492 | 671.15
397.28 K, 49810 kPa, x1 = 0.7024 | 693.79
397.28 K, 54840 kPa, x1 = 0.492 | 681.14
397.28 K, 54910 kPa, x1 = 0.7024 | 698.93
397.28 K, 59840 kPa, x1 = 0.492 | 685.74
397.28 K, 59850 kPa, x1 = 0.801 | 714.7
397.28 K, 59860 kPa, x1 = 0.7024 | 703.65
397.28 K, 64820 kPa, x1 = 0.492 | 690.08
